Drawing on patent publication US7091202B2, “4-arylspirocycloalkyl-2-aminopyrimidine carboxamide KCNQ potassium channel modulators” (Bristol-Myers Squibb Company, priority 2004, dated 2006), this text covers EC50 for 30 molecules.

Usually EC50 stands for the midpoint of the concentration-response curve.

The target of the first assay is T1, hQ23 (HEK-293 cell line stably transfected with one of the members of the KCNQ family) (Homo sapiens, UniProt O43525+O43526).
T1 construct: expressed in transfected cells; host or cells: HEK-293, stably transfected
T1 sequence (O43526 whole entry): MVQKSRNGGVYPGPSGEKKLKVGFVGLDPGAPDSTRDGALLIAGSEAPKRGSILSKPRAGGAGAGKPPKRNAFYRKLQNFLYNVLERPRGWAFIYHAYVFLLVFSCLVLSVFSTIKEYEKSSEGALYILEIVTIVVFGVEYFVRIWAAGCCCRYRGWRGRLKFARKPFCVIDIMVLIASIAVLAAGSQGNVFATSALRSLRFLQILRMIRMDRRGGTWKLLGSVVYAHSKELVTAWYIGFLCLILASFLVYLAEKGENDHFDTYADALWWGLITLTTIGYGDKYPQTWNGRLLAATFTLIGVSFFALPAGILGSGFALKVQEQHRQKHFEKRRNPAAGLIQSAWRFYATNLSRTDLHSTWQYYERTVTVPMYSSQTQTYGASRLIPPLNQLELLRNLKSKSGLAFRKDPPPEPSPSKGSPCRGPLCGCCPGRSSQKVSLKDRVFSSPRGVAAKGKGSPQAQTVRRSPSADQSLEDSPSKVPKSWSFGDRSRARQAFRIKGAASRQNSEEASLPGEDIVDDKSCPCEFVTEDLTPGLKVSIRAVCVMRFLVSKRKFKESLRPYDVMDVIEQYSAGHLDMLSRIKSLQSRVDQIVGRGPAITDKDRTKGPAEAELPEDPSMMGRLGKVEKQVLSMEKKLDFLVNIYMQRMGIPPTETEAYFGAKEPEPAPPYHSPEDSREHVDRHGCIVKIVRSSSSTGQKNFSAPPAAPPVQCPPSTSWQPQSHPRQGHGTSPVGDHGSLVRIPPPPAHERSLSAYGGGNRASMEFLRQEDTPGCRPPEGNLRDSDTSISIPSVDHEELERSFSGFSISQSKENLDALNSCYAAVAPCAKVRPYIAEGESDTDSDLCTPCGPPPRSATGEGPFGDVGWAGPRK
T1 sequence (O43525 whole entry): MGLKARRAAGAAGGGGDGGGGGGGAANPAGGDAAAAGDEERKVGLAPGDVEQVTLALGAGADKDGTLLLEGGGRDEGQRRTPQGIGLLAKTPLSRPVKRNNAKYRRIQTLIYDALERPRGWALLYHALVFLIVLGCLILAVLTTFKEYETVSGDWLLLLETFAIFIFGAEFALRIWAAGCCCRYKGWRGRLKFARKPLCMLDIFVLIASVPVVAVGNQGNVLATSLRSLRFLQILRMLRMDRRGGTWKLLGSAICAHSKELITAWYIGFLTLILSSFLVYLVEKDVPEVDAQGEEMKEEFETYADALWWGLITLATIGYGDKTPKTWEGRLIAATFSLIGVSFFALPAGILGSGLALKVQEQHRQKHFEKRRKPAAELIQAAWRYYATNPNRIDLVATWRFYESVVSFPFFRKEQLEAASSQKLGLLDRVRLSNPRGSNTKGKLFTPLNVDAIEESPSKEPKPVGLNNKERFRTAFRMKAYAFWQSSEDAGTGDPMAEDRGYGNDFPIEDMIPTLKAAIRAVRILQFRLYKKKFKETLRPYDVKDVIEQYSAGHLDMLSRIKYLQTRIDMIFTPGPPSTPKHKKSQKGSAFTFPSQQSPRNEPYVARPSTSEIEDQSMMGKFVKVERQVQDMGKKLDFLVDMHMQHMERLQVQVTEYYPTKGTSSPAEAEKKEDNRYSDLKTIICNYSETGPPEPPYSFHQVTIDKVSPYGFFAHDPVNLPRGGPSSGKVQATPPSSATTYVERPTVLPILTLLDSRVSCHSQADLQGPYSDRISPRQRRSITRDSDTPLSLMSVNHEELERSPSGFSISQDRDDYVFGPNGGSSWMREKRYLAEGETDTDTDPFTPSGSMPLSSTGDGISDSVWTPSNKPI
The experiment in a line: Thallium flux assay for KCNQ channel blockers (FLIPR, BTC dye). Particulars: Table 2; thallium flux, HEK-293. Format: cell-based. The procedure, abridged: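 FLIPR thallium flux readout (BTC dye, 2 μM AM ester) in stably transfected KCNQ HEK-293 cells, chloride-free HEPES buffer pH 7.3, Tl2SO4 stimulus. IC50s were fitted with a single-site logistic equation across 10 points at 1:3 dilutions, defined as 50% of positive-control block; minimal active concentration meant signal ≥4 SD over DMSO controls.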
For the molecule `CCN(C(=O)c1cnc(N2CCN(C)CC2)nc1C1(c2ccccc2)CC1)C1CCCCC1` [Example 27, 5-pyrimidinecarboxamide, N-cyclohexyl-N-ethyl-2-(4-methyl-1-piperazinyl)-4-(1-phenylcyclopropyl)-], the EC50 was 470 nM. With `CC1CCN(c2ncc(C(=O)NCc3cccc4ccccc34)c(C3(c4ccccc4)CC3)n2)CC1` [Example 38, 5-pyrimidinecarboxamide, 2-(4-methyl-1-piperidinyl)-N-(1-naphthalenylmethyl)-4-(1-phenylcyclopropyl)-], a half-maximal effect (EC50) was put at 381 nM.

Still in this assay, the particulars now being: Table 3; thallium flux, HEK-293.
Turning to `CC1CCN(c2ncc(C(=O)NCc3cc(F)cc(C(F)(F)F)c3)c(C3(c4ccc(Cl)cc4)CCC3)n2)CC1` [Example 67, 5-pyrimidinecarboxamide, 4-[1-(4-chlorophenyl)cyclobutyl]-N-[[3-fluoro-5-(trifluoromethyl)phenyl]methyl]-2-(4-methyl-1-piperidinyl)-], the EC50 came to 10 nM.

Still in this assay, the particulars now being: hQ23 cells, thallium flux.
For `CC1CCC(Nc2ncc(C(=O)N(C)C3CCCCC3)c(C3(c4ccc(F)cc4)CCCC3)n2)CC1` (stereo not drawn) [Example 207, 5-pyrimidinecarboxamide, N-cyclohexyl-4-[1-(4-fluorophenyl)cyclopentyl]-N-methyl-2-[(4-methylcyclohexyl)amino]-], it took 873 nM to reach a half-maximal effect (EC50).

Molecule `CN1CCN(c2ncc(C(=O)NCc3cc(F)cc(C(F)(F)F)c3)c(C3(c4ccccc4)CCCC3)n2)CC1` [Example 125, 5-pyrimidinecarboxamide, N-[[3-fluoro-5-(trifluoromethyl)phenyl]methyl]-2-(4-methyl-1-piperazinyl)-4-(1-phenylcyclopentyl)-] returned an EC50 of 375 nM. The same measure, in the same setting: to `CC1CCC(Nc2ncc(C(=O)N(C)CCc3ccccc3)c(C3(c4ccc(Cl)cc4)CCCC3)n2)CC1` (stereo not drawn) [Example 146, 5-pyrimidinecarboxamide, 4-[1-(4-chlorophenyl)cyclopentyl]-N-methyl-2-[(4-methylcyclohexyl)amino]-N-(2-phenylethyl)-] belongs 664 nM; to `CC1CCN(c2ncc(C(=O)NCc3cc(F)cc(C(F)(F)F)c3)c(C3(c4ccccc4)CCCC3)n2)CC1` [Example 127, 5-pyrimidinecarboxamide, N-[[3-fluoro-5-(trifluoromethyl)phenyl]methyl]-2-(4-methyl-1-piperidinyl)-4-(1-phenylcylopentyl)-], 10 nM; to `O=C(NCc1ccc(Cl)cc1Cl)c1cnc(NC2CCCC2)nc1C1(c2ccc(Cl)cc2)CCCC1` [Example 185, 5-pyrimidinecarboxamide, 4-[1-(4-chlorophenyl)cyclopentyl]-2-(cyclopentylamino)-N-[(2,4-dichlorophenyl)methyl]-], 10 nM. On the same count and under the same terms, to `CN1CCN(c2ncc(C(=O)NCc3ccc(Cl)c(Cl)c3)c(C3(c4ccc(Cl)cc4)CCCC3)n2)CC1` [Example 173, 5-pyrimidinecarboxamide, 4-[1-(4-chlorophenyl)cyclopentyl]-N-[(3,4-dichlorophenyl)methyl]-2-(4-methyl-1-piperazinyl)-] belongs 820 nM.

`CC1CCN(c2ncc(C(=O)NC(C)c3cccc4ccccc34)c(C3(c4ccc(Cl)cc4)CCCC3)n2)CC1` (stereo not drawn) [Example 161, 5-pyrimidinecarboxamide, 4-[1-(4-chlorophenyl)cyclopentyl]-2-(4-methyl-1-piperidinyl)-N-[1-(1-naphthalenyl)ethyl]-] registered an EC50 of 10 nM. This EC50 lies about 82-fold lower than the previous one. In turn, `CCC(C)Nc1ncc(C(=O)NCc2ccc3c(c2)OCO3)c(C2(c3ccccc3)CCCC2)n1` (stereo not drawn) [Example 94, 5-pyrimidinecarboxamide, N-(1,3-benzodioxol-5-ylmethyl)-2-[(1-methylpropyl)amino]-4-(1-phenylcyclopentyl)-] yielded an EC50 of 301 nM.

`CN(CCc1ccccc1)C(=O)c1cnc(N2CCCC2)nc1C1(c2ccc(F)cc2)CCCC1` [Example 220, 5-pyrimidinecarboxamide, 4-[1-(4-fluorophenyl)cyclopentyl]-N-methyl-N-(2-phenylethyl)-2-(1-pyrrolidinyl)-] yielded an EC50 of 169 nM.

For the molecule `CC1CCN(c2ncc(C(=O)NCc3ccc(F)cc3F)c(C3(c4ccccc4)CCCC3)n2)CC1` [Example 119, 5-pyrimidinecarboxamide, N-[(2,4-difluorophenyl)methyl]-2-(4-methyl-1-piperidinyl)-4-(1-phenylcyclopentyl)-], a half-maximal effect (EC50) was put at 122 nM. On the same count and under the same terms, to `CC1CCC(Nc2ncc(C(=O)N(C)CCc3ccccc3)c(C3(c4ccc(F)cc4)CCCC3)n2)CC1` (stereo not drawn) [Example 219, 5-pyrimidinecarboxamide, 4-[1-(4-fluorophenyl)cyclopentyl]-N-methyl-2-[(4-methylcyclohexyl)amino]-N-(2-phenylethyl)-] belongs 334 nM.

With `CCC(C)Nc1ncc(C(=O)N(CC)Cc2ccccc2)c(C2(c3ccccc3)CCCC2)n1` (stereo not drawn) [Example 87, 5-pyrimidinecarboxamide, N-ethyl-2-[(1-methylpropyl)amino]-4-(1-phenylcyclopentyl)-N-(phenylmethyl)-], the EC50 came to 851 nM. Still for that read-out and setting: to `O=C(NCc1ccc(Cl)cc1Cl)c1cnc(NC2CC2)nc1C1(c2ccc(Cl)cc2)CCCC1` [Example 176, 5-pyrimidinecarboxamide, 4-[1-(4-chlorophenyl)cyclopentyl]-2-(cyclopropylamino)-N-[(2,4-dichlorophenyl)methyl]-] belongs 196 nM. The same measure, in the same setting: to `CC1CCC(Nc2ncc(C(=O)NCc3ccc(Cl)cc3Cl)c(C3(c4ccccc4)CCCC3)n2)CC1` (stereo not drawn) [Example 110, 5-pyrimidinecarboxamide, N-[(2,4-dichlorophenyl)methyl]-2-[(4-methylcyclohexyl)amino]-4-(1-phenylcyclopentyl)-] belongs 68 nM. On the same count and under the same terms, to `CC(NC(=O)c1cnc(NC2CCCC2)nc1C1(c2ccccc2)CCCC1)c1cccc2ccccc12` (stereo not drawn) [Example 100, 5-pyrimidinecarboxamide, 2-(cyclopentylamino)-N-[1-(1-naphthalenyl)ethyl]-4-(1-phenylcyclopentyl)-] belongs 160 nM; to `CCN(CC)C(=O)c1cnc(NC2CCC(C)CC2)nc1C1(c2ccccc2)CCCC1` (stereo not drawn) [Example 72, 5-pyrimidinecarboxamide,N,N-diethyl-2-[(4-methylcyclohexyl)amino]-4-(1-phenylcyclopentyl)-], 576 nM; to `CC(NC(=O)c1cnc(NC2CCCC2)nc1C1(c2ccccc2)CCCC1)c1ccc(F)cc1` (stereo not drawn) [Example 136, 5-pyrimidinecarboxamide, 2-(cyclopentylamino)-N-[1-(4-fluorophenyl)ethyl]-4-(1-phenylcyclopentyl)-], 413 nM. In turn, `CC1CCCN(c2ncc(C(=O)NCc3ccc4c(c3)OCO4)c(C3(c4ccccc4)CCCC3)n2)C1` (stereo not drawn) [Example 92, 5-pyrimidinecarboxamide, N-(1,3-benzodioxol-5-ylmethyl)-2-(3-methyl-1-piperidinyl)-4-(1-phenylcyclopentyl)-] showed an EC50 of 57 nM. This EC50 lies about 7.2-fold lower than the previous one.

The molecule `CCN(Cc1ccccc1)C(=O)c1cnc(NC2CCCC2)nc1C1(c2ccc(Cl)cc2)CCCC1` [Example 149, 5-pyrimidinecarboxamide, 4-[1-(4-chlorophenyl)cyclopentyl]-2-(cyclopentylamino)-N-ethyl-N-(phenylmethyl)-] showed an EC50 of 525 nM.

The same assay, now with this note: hQ23 cells, thallium flux assay.
Take `CCC(C)Nc1ncc(C(=O)NCc2ccc(Cl)cc2Cl)c(C2(c3ccc(F)cc3)CCCC2)n1` (stereo not drawn) [Example 265, 5-pyrimidinecarboxamide, N-[(2,4-dichlorophenyl)methyl]-4-[1-(4-fluorophenyl)cyclopentyl]-2-[(1-methylpropyl)amino]-]: the EC50 came to 138 nM. This lies in the sub-micromolar range. Same read-out and setting: then `CN(C)CCNc1ncc(C(=O)NCc2ccc3c(c2)OCO3)c(C2(c3ccc(F)cc3)CCCC2)n1` [Example 239, 5-pyrimidinecarboxamide, N-(1,3-benzodioxol-5-ylmethyl)-2-[[2-(dimethylamino)ethyl]amino]-4-[1-(4-fluorophenyl)cyclopentyl]-], with 792 nM; and `CC1CCCN(c2ncc(C(=O)NCc3ccc(Cl)cc3Cl)c(C3(c4ccc(F)cc4)CCCC3)n2)C1` (stereo not drawn) [Example 262, 5-pyrimidinecarboxamide, N-[(2,4-dichlorophenyl)methyl]-4-[1-(4-fluorophenyl)cyclopentyl]-2-(3-methyl-1-piperidinyl)-], with 10 nM.

Molecule `CC1CCN(c2ncc(C(=O)NCc3ccc(F)cc3F)c(C3(c4ccc(F)cc4)CCCC3)n2)CC1` [Example 270, 5-pyrimidinecarboxamide, N-[(2,4-difluorophenyl)methyl]-4-[1-(4-fluorophenyl)cyclopentyl]-2-(4-methyl-1-piperidinyl)-] had an EC50 of 142 nM. Take `CC1CCCN(c2ncc(C(=O)NC(C)c3cccc4ccccc34)c(C3(c4ccc(F)cc4)CCCC3)n2)C1` (stereo not drawn) [Example 244, 5-pyrimidinecarboxamide, 4-[1-(4-fluorophenyl)cyclopentyl]-2-(3-methyl-1-piperidinyl)-N-[1-(1-naphthalenyl)ethyl]-]: the EC50 stood at 10 nM. In turn, `CC(NC(=O)c1cnc(NC2CC2)nc1C1(c2ccc(F)cc2)CCCC1)c1cccc2ccccc12` (stereo not drawn) [Example 240, 5-pyrimidinecarboxamide, 2-(cyclopropylamino)-4-[1-(4-fluorophenyl)cyclopentyl]-N-[1-(1-naphthalenyl)ethyl]-] had an EC50 of 507 nM. Against the preceding molecule, the EC50 is about 51-fold higher. Same read-out and setting: to `CC1CCN(c2ncc(C(=O)NC(C)c3ccc(F)cc3)c(C3(c4ccc(F)cc4)CCCC3)n2)CC1` (stereo not drawn) [Example 285, 5-pyrimidinecarboxamide, 4-[1-(4-fluorophenyl)cyclopentyl]-N-[1-(4-fluorophenyl)ethyl]-2-(4-methyl-1-piperidinyl)-] belongs 95 nM; to `CC1CCCN(c2ncc(C(=O)NCc3cc(F)cc(C(F)(F)F)c3)c(C3(c4ccc(F)cc4)CCCC3)n2)C1` (stereo not drawn) [Example 277, 5-pyrimidinecarboxamide, 4-[1-(4-fluorophenyl)cyclopentyl]-N-[[3-fluoro-5-(trifluoromethyl)phenyl]methyl]-2-(3-methyl-1-piperidinyl)-], 22 nM.
